The values that follow come from US20150011528A1, “PHENYLIMIDE-CONTAINING BENZOTHIAZOLE DERIVATIVE OF ITS SALT AND PHARMACEUTICAL COMPOSITION COMPRISING THE SAME” (YUHAN CORPORATION, priority 2011, published 2015).

One assay deals with A549 cells. The assay can be described thus: Cell Migration Assay (transwell, laminin). It counts as cell-based. The conditions noted are these: Homo sapiens, laminin 10 μg/mL in lower well, test compounds 0.39˜100 μM, 6 hours at 37° C. The protocol: Cell migration was measured with a 24-well transwell having a polycarbonate membrane (8.0 μm pore size, Costar) at the bottom of the upper chamber. Each lower well was treated with laminin (10 μg/mL) and test compounds (0.39˜100 μM) along with a serum-free RPMI1640 medium. A549 cells (Korean Cell Line Bank) were suspended in a serum-free RPMI1640 medium at a concentration of 1×10^6 cells/mL and then the test compounds were added thereto at the indicated concentrations. Each resulting solution (100 μL) was added to the upper chamber. The cells were cultured at 37° C. for 6 hours in a CO2 incubator. The upper chamber was taken out and then the cells were fixed with PBS containing 70% methyl alcohol for 10 minutes, followed by washing with PBS twice. The cells were stained with hematoxylin (Sigma) for 10 minutes and then washed with distilled water. The non-migrated cells were removed from the upper portion of the polycarbonate membrane with a cotton swab. The membranes were excised and separated from the chamber, and then mounted to a slide using a gel mount reagent (Biomeda, USA). The migrated cells (attached to the lower face of the membrane) were counted at three randomly selected sites under a microscope (×20). The cell counting was performed with the Image J program. From the counted cell numbers, each IC50 value was calculated by non-linear regression curve fit using the “GraphPad Prism” program.
The cells are pulled by laminin residing in the lower chamber and then passed through the polycarbonate membrane, so as to attach to the lower face of the membrane.
For `CCC(C(=O)O)n1c(=NC(=O)c2ccc(F)c(Cl)c2)sc2cc(F)c(F)cc21` (stereo not shown) [Example 467, 2-(2-((3-chloro-4-fluorobenzoyl)imino)-5,6-difluorobenzo[d]thiazol-3(2H)-yl)butanoic acid], half-maximal inhibition (IC50) required 19 µM. The same measure, in the same setting: in the case of `CCC(C(=O)O)n1c(=NC(=O)c2cccc(Cl)c2)sc2cc(C(F)(F)F)ccc21` (stereo not shown) [Example 173, 2-(2-((3-chlorobenzoyl)imino)-6-(trifluoromethyl)benzo[d]thiazol-3(2H)-yl)butanoic acid] it was 16.5 µM; in that of `CCC(C(=O)O)n1c(=NC(=O)c2ccc(C)cc2)sc2cc(OC(F)(F)F)ccc21` (stereo not shown) [Example 14, 2-{2-[(4-methylbenzoyl)imino]-6-(trifluoromethoxy)benzo[d]thiazol-3(2H)-yl]butanoic acid], 21.5 µM. On the same count and under the same terms, next, `CC(C(=O)O)n1c(=NC(=O)c2ccc(C(F)(F)F)cc2)sc2ccccc21` (stereo not shown) [Example 186, 2-(2-(4-(trifluoromethyl)benzoylimino)benzo[d]thiazol-3(2H)-yl)propionic acid]: 101 µM; `Cc1ccc2c(c1)sc(=NC(=O)c1cccc(C(F)(F)F)c1)n2C(C)C(=O)O` (stereo not shown) [Example 195, 2-(6-methyl-2-((3-(trifluoromethyl)benzoyl)imino)benzo[d]thiazol-3(2H)-yl)propionic acid]: 87 µM. Same read-out and setting: in the case of `CCC(C(=O)O)n1c(=NC(=O)c2cccc(Br)c2)sc2ccccc21` (stereo not shown) [Example 83, 2-[2-(3-bromobenzoylimino)benzo[d]thiazol-3(2H)-yl]butanoic acid] it was 12.3 µM; in that of `Cc1ccc(C(=O)N=c2sc3c(F)cc(F)cc3n2C(C)C(=O)O)cc1` (stereo not shown) [Example 455, 2-(5,7-difluoro-2-((4-methylbenzoyl)imino)benzo[d]thiazol-3(2H)-yl)propionic acid], 80 µM.

On to `O=C(O)Cn1c(=NC(=O)c2cccc(Cl)c2)sc2c(F)cccc21` [Example 347, 2-(2-((3-chlorobenzoyl)imino)-7-fluorobenzo[d]thiazol-3(2H)-yl)acetic acid], for which 109 µM corresponded to half-maximal inhibition (IC50). For `O=C(O)Cn1c(=NC(=O)c2cccc(Cl)c2)sc2c(Cl)cccc21` [Example 358, 2-(7-chloro-2-((3-chlorobenzoyl)imino)benzo[d]thiazol-3(2H)-yl)acetic acid], the IC50 is 29.4 µM. On the same count and under the same terms, in the case of `CC(C(=O)O)n1c(=NC(=O)c2cccc(Cl)c2)sc2c(F)cccc21` (stereo not shown) [Example 373, 2-(2-((3-chlorobenzoyl)imino)-7-fluorobenzo[d]thiazol-3(2H)-yl)propionic acid] it was 92.4 µM; in that of `COc1ccc2c(c1)sc(=NC(=O)c1cccc(Cl)c1)n2C(C)C(=O)O` (stereo not shown) [Example 53, 2-{2-[(3-chlorobenzoyl)imino]-6-methoxybenzo[d]thiazol-3(2H)-yl}propionic acid], 59 µM. The compound `CCC(C(=O)O)n1c(=NC(=O)c2ccc(C)cc2)sc2cc(C)c(F)cc21` (stereo not shown) [Example 16, 2-{5-fluoro-6-methyl-2-[(4-methylbenzoyl)imino]benzo[d]thiazol-3(2H)-yl}butanoic acid] showed a half-maximal inhibitory concentration (IC50) of 11.8 µM. Consider `CC(C(=O)O)n1c(=NC(=O)c2cccc(Cl)c2)sc2c(C(F)(F)F)cccc21` (stereo not shown) [Example 270, 2-(2-(3-chlorobenzoylimino)-7-(trifluoromethyl)benzo[d]thiazol-3(2H)-yl)propionic acid], for which the IC50 is 1 µM. `CCC(C(=O)O)n1c(=NC(=O)c2ccc(C)cc2)sc2cc(C)c(C)cc21` (stereo not shown) [Example 6, 2-{5,6-dimethyl-2-[(4-methylbenzoyl)imino]benzo[d]thiazol-3(2H)-yl}butanoic acid] had an IC50 of 26.5 µM. Consider `COc1ccc2c(sc(=NC(=O)c3cccc(Cl)c3)n2CC(=O)O)c1F` [Example 396, 2-(2-((3-chlorobenzoyl)imino)-7-fluoro-6-methoxybenzo[d]thiazol-3(2H)-yl)acetic acid], for which the IC50 turned out to be 43 µM. Compound `CCC(C(=O)O)n1c(=NC(=O)c2ccc(C)cc2)sc2cc(F)ccc21` (stereo not shown) [Example 153, 2-[6-fluoro-2-(4-methylbenzoylimino)benzo[d]thiazol-3(2H)-yl]butanoic acid] displayed a half-inhibitory concentration (IC50) of 31.1 µM. In turn, `CCOc1ccc2c(c1)sc(=NC(=O)c1cccc(C(F)(F)F)c1)n2C(C)C(=O)O` (stereo not shown) [Example 192, 2-(6-ethoxy-2-((3-(trifluoromethyl)benzoyl)imino)benzo[d]thiazol-3(2H)-yl)propionic acid] displayed an IC50 of 33 µM. Same read-out and setting: in the case of `CC(C(=O)O)n1c(=NC(=O)c2ccc(F)c(Cl)c2)sc2cc(F)c(F)cc21` (stereo not shown) [Example 466, 2-(2-((3-chloro-4-fluorobenzoyl)imino)-5,6-difluorobenzo[d]thiazol-3(2H)-yl)propionic acid] it was 49 µM. In turn, `CCC(C(=O)O)n1c(=NC(=O)c2ccc(C)cc2)sc2ccc(C)cc21` (stereo not shown) [Example 100, 2-[5-methyl-2-(4-methylbenzoylimino)benzo[d]thiazol-3(2H)-yl]butanoic acid] had an IC50 of 43 µM. Still for that read-out and setting: in the case of `COc1ccc2c(c1)sc(=NC(=O)c1cccc(C(F)(F)F)c1)n2C(C)C(=O)O` (stereo not shown) [Example 189, 2-(6-methoxy-2-((3-(trifluoromethyl)benzoyl)imino)benzo[d]thiazol-3(2H)-yl)propionic acid] it was 87 µM. Still for that read-out and setting: next, `COc1cccc2sc(=NC(=O)c3cccc(Cl)c3)n(C(C)C(=O)O)c12` (stereo not shown) [Example 282, 2-(2-(3-chlorobenzoylimino)-4-methoxybenzo[d]thiazol-3(2H)-yl)propionic acid]: 25 µM. Regarding `CCC(C(=O)O)n1c(=NC(=O)c2ccc(OC)cc2)sc2ccccc21` (stereo not shown) [Example 60, 2-[2-(4-methoxybenzoylimino)benzo[d]thiazol-3(2H)-yl]butanoic acid], the IC50 is 26.9 µM.

The compound `Cc1ccc(C(=O)N=c2sc3c(C)cccc3n2C(C)C(=O)O)cc1` (stereo not shown) [Example 103, 2-[7-methyl-2-(4-methylbenzoylimino)benzo[d]thiazol-3(2H)-yl]propionic acid] yielded an IC50 of 28 µM. In turn, `CCC(C(=O)O)n1c(=NC(=O)c2cccc(Cl)c2)sc2c(F)cc(F)cc21` (stereo not shown) [Example 462, 2-(2-((3-chlorobenzoyl)imino)-5,7-difluorobenzo[d]thiazol-3(2H)-yl)butanoic acid] registered a half-inhibitory concentration (IC50) of 43 µM.

Take `CCC(C(=O)O)n1c(=NC(=O)c2cc(Cl)cc(Cl)c2)sc2cc(F)c(F)cc21` (stereo not shown) [Example 468, 2-(2-((3,5-dichlorobenzoyl)imino)-5,6-difluorobenzo[d]thiazol-3(2H)-yl)butanoic acid]: the half-maximal inhibitory concentration (IC50) came out at 41 µM. `CCC(C(=O)O)n1c(=NC(=O)c2ccc(C)cc2)sc2ccc(Cl)cc21` (stereo not shown) [Example 105, 2-[5-chloro-2-(4-methylbenzoylimino)benzo[d]thiazol-3(2H)-yl]butanoic acid] came in with an IC50 of 19 µM. Still for that read-out and setting: next, `Cc1cccc2c1sc(=NC(=O)c1cccc(C(F)(F)F)c1)n2C(C)C(=O)O` (stereo not shown) [Example 314, 2-(7-methyl-2-(3-(trifluoromethyl)benzoylimino)benzo[d]thiazol-3(2H)-yl)propionic acid]: 46 µM; `CCC(C(=O)O)n1c(=NC(=O)c2ccc(C)cc2)sc2cc([N+](=O)[O-])ccc21` (stereo not shown) [Example 23, 2-{2-[(4-methylbenzoyl)imino]-6-nitrobenzo[d]thiazol-3(2H)-yl}butanoic acid]: 23.7 µM. `CC(C(=O)O)n1c2c(sc1=NC(=O)c1cccc(C(F)(F)F)c1)CCCC2` (stereo not shown) [Example 295, 2-(2-(3-(trifluoromethyl)benzoylimino)-4,5,6,7-tetrahydrobenzo[d]thiazol-3(2H)-yl)propionic acid]: the IC50 was 60 µM. Compound `CC(C(=O)O)n1c(=NC(=O)c2cccc(C(F)(F)F)c2)sc2c(F)c(F)c(F)cc21` (stereo not shown) [Example 380, 2-(5,6,7-trifluoro-2-((3-(trifluoromethyl)benzoyl)imino)benzo[d]thiazol-3(2H)-yl)propionic acid] displayed an IC50 of 36.2 µM. `CCCCCCC(C(=O)O)n1c(=NC(=O)c2ccc(C)cc2)sc2ccccc21` (stereo not shown) [Example 147, 2-[2-(4-methylbenzoylimino)benzo[d]thiazol-3(2H)-yl]octanoic acid]: the midpoint of inhibition, the IC50, lay at 5.7 µM.

As for `CCOc1ccc2c(sc(=NC(=O)c3cccc(Cl)c3)n2C(CC)C(=O)O)c1F` (stereo not shown) [Example 427, 2-(2-((3-chlorobenzoyl)imino)-6-ethoxy-7-fluorobenzo[d]thiazol-3(2H)-yl)butanoic acid], it took 18 µM to reach half-maximal inhibition (IC50).

Compound `O=C(O)Cn1c(=NC(=O)c2cccc(Cl)c2)sc2ccccc21` [Example 123, 2-[2-(3-chlorobenzoylimino)benzo[d]thiazol-3(2H)-yl]acetic acid] came in with an IC50 of 40.1 µM. Still for that read-out and setting: in the case of `CCC(C(=O)O)n1c(=NC(=O)c2cccc(Cl)c2)sc2c(F)c(F)c(F)cc21` (stereo not shown) [Example 417, 2-(2-((3-chlorobenzoyl)imino)-5,6,7-trifluorobenzo[d]thiazol-3(2H)-yl)butanoic acid] it was 22 µM.

The same assay, now with this note: laminin 10 μg/mL in lower well, test compounds 0.39˜100 μM, 6 hours at 37° C.
With `CCC(C(=O)O)n1c(=NC(=O)c2cc(F)cc(C(F)(F)F)c2)sc2cc(F)c(F)cc21` (stereo not shown) [Example 469], the IC50 came to 66 µM.

On to `Cc1ccc(C(=O)N=c2sc3ccccc3n2C(C(=O)O)c2ccccc2)cc1` (stereo not shown) [Example 152], for which 22.7 µM corresponded to half-maximal inhibition (IC50). As for `CCC(C(=O)O)n1c(=NC(=O)c2ccc(F)c(C(F)(F)F)c2)sc2cc(F)c(F)cc21` (stereo not shown) [Example 471], inhibition was half-maximal at 32 µM (IC50).

In general, IC50 refers to the point on the concentration scale where inhibition reaches its midpoint.
